One assay concerns LPS-GalN challenged mice. The experiment in a line: LPS-GalN model of fatal cytokine storm and sepsis; RJX, DEX or RJX+DEX 2 hours post LPS-GalN. It is filed as in vivo, BALB/c mice. The conditions noted are these: for Censored: alive at 24 h; for Events: deaths within 24 h.
The conditions of assay [1]: equivalent to dexamethasone 0.75 mg; cited from earlier work.
[2] abbreviates: RJX 0.7 ml/kg (n=20), DEX 0.6 mg/kg (n=10), or both (n=20).

Each structure is given as a SMILES string.

For the compound `C[C@@H]1C[C@H]2[C@@H]3CCC4=CC(=O)C=C[C@]4(C)[C@@]3(F)[C@@H](O)C[C@]2(C)[C@@]1(O)C(=O)CO` [DEX, dexamethasone], the Censored worked out at 1 with LPS-GalN challenged mice (DEX 0.1 mg/kg i.p. 2 h post LPS-GalN, n=6); 3 in the assay with LPS-GalN challenged mice (DEX 0.6 mg/kg i.p. 2 h post LPS-GalN, n=6); 4 in the assay with LPS-GalN challenged mice (DEX 6.0 mg/kg i.p. 2 h post LPS-GalN, n=6); 5 in the assay with LPS-GalN challenged mice (RJX 0.7 ml/kg (n=20), DEX 0.6 mg/kg (n=10), or both (n=20) 2 h post LPS-GalN). Further, the Median survival in the assay on LPS-GalN challenged mice (DEX 0.1 mg/kg, n=6) was determined as 5.1 h; in the assay on LPS-GalN challenged mice (DEX 0.6 mg/kg, n=6) it was 15.0 h. Also, the “Proportion (24-h mortality)” value with LPS-GalN challenged mice (DEX 0.1 mg/kg, n=6) turned out to be 83.3%. For the same compound, the Events in the assay on LPS-GalN challenged mice (DEX 0.1 mg/kg, n=6) is on record as 5; in the assay with LPS-GalN challenged mice (DEX 0.6 mg/kg, n=6), 3; in the assay on LPS-GalN challenged mice (DEX 6.0 mg/kg, n=6) it was 2; in the assay with LPS-GalN challenged mice (setting [2]), 5. Moreover, the “Proportion (mortality)” value was found to be 50.0% in the assay with LPS-GalN challenged mice (DEX 0.6 mg/kg, n=6); 33.3% with LPS-GalN challenged mice (DEX 6.0 mg/kg, n=6); 50.0% in the assay on LPS-GalN challenged mice (setting [2]). The “lung histopathological ALI scores, range” value with LPS-GalN challenged mice (RJX 0.7 ml/kg, DEX 6.0 mg/kg, alone or combined, n=6) is 1-3. Further, the “ALI score of representative mouse” value with LPS-GalN challenged mice (single dose at 2 hours post-LPS-GalN, sacrificed at 24 hours, FIG. 20) worked out at 2.

`C[C@]12C=CC(=O)C=C1CC[C@H]1[C@@H]3C[C@@H](O)[C@](O)(C(=O)CO)[C@@]3(C)C[C@H](O)[C@@]12F` [Triamcinolone]: the “Approximate Equivalent Dose” value in assay [1] is recorded as 4 mg.

Take `C[C@]12CCC(=O)C=C1CC[C@@H]1[C@@H]2C(=O)C[C@@]2(C)[C@H]1CC[C@]2(O)C(=O)CO` [Cortisone]: the “Approximate Equivalent Dose” value in assay [1] is listed as 25 mg.

As to `C[C@]12C=CC(=O)C=C1CC[C@@H]1[C@@H]2[C@@H](O)C[C@@]2(C)[C@H]1CC[C@]2(O)C(=O)CO` [Prednisolone], in assay [1], the “Approximate Equivalent Dose” value is reported as 5 mg.

Turning to `C[C@]12CCC(=O)C=C1CC[C@@H]1[C@@H]2[C@@H](O)C[C@@]2(C)[C@H]1CC[C@]2(O)C(=O)CO` [Hydrocortisone], the “Approximate Equivalent Dose” value in assay [1] is given as 20 mg.
